Laboratory results: publication PMC7236056 (ACS Medicinal Chemistry Letters, 2020)

How the values were obtained:
hPPARα = molecular target: T1, hPPARα (Homo sapiens, UniProt Q07869); experiment: GAL-4 PPAR transactivation assay, agonist activity; settings: 1, 2.5 and 5 μM; HepG2
T1 sequence (Q07869 239-466 limits assumed): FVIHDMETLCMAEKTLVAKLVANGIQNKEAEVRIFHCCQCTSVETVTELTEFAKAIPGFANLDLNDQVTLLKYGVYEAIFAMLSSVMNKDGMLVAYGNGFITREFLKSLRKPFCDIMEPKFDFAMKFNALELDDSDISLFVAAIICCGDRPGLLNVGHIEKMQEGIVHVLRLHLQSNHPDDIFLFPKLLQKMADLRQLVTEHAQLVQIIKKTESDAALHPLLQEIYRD

hPPARγ = molecular target: T2, hPPARγ (Homo sapiens, UniProt P37231); experiment: GAL-4 PPAR transactivation assay, agonist activity; settings: 1, 2.5 and 5 μM; HepG2; data not shown
T2 sequence (P37231 238-503 limits assumed): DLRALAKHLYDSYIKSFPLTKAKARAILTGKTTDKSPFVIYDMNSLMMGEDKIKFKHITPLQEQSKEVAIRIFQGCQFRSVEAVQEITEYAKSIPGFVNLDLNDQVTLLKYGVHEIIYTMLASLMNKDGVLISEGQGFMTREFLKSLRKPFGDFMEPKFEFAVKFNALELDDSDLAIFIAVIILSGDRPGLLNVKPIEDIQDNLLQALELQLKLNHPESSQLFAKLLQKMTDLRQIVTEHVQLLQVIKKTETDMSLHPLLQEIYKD

[1] = system: paraganglioma (PGL) cell lines (PTJ64i, PTJ86i); experiment: MTT cell viability, paraganglioma cell lines; assay type: cell-based; settings: Homo sapiens, 72 h, read-out: inhibition rate in the PGL cell lines
[2] = system: colorectal cancer cell lines (HT-29, SW480); experiment: MTT cell viability, colorectal cancer cell lines; assay type: cell-based; settings: Homo sapiens, 72 h, read-out: inhibition rate in the colon cancer cell lines
[3] = system: eight human cancer cell lines (AsPC-1, BxPC-3, Capan-2, HT-29, SW480, PTJ64i, PTJ86i, A498); experiment: MTT cell viability, eight human cancer cell lines, single concentration; assay type: cell-based; settings: 75 μM, 72 h
CPT1A = experiment: Expression of PPARα target gene CPT1A by RTqPCR; assay type: cell-based, human; settings: HepG2, 48 h; test compounds 0.5 µM, GW7647 2 µM

SMILES	inhibition at 75 µM [1]	inhibition at 75 µM [2]	also measured
CC(C)(Oc1ccc(CCOc2ccc(/N=N/c3ccccc3)cc2)cc1)C(=O)NS(=O)(=O)c1ccccc1 [2b]			agonist activity on PPARα (hPPARα): no detectable PPARα/γ activity; agonist activity on PPARγ (hPPARγ): no detectable PPARα/γ activity
CC(C)(Oc1ccc(CCOc2ccc(/N=N/c3ccccc3)cc2)cc1)C(=O)NS(=O)(=O)c1ccc(Cl)cc1 [3c]	84 to 98%	52 to 98%	
CC(C)(Oc1ccc(CCOc2ccc(/N=N/c3ccccc3)cc2)cc1)C(=O)NS(=O)(=O)c1ccc([N+](=O)[O-])cc1 [3d]	84 to 98%	52 to 98%	
CC(C)(Oc1ccc(CCOc2ccc(NC(=O)c3ccccc3)cc2)cc1)C(=O)NS(=O)(=O)c1ccccc1 [10e]	84 to 98%	52 to 98%	
CCC(=O)NC[C@H](Cc1ccc(OCCc2nc(-c3ccccc3)oc2C)cc1)N/C(C)=C\C(=O)c1ccc(C(F)(F)F)cc1 [GW6471, reference compound]	85 to 92%		effect on cell viability across the tumor cell lines tested [3]: showed antiproliferative activities
CC(C)(Sc1ccc(CCN(CCCCC2CCCCC2)C(=O)NC2CCCCC2)cc1)C(=O)O [GW7647]			CPT1A mRNA expression, compound alone (CPT1A): robustly stimulated CPT1A expression
Cc1cccc(Nc2cc(Cl)nc(SCC(=O)O)n2)c1C [Wy-14,643]			effect on cell viability across the tumor cell lines tested [3]: did not affect cell viability
